This is an account of results in US20220264878A1, “HERBICIDAL COMPOSITION CONTAINING R-TYPE PYRIDYLOXY CARBOXYLIC ACID DERIVATIVE AND USE THEREOF” (Qingdao Kingagroot Chemical Compound Co., Ltd., priority 2019, published 2022).

Holding throughout (format): in vivo
One test concerns Xanthium strumarium. Put plainly: Post-emergence foliage spray, pot culture, fresh weight inhibition (Tables 1-48, 51-98, 101-148; 24 days). The procedure, abridged: (§1)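 Greenhouse pot plants (20–30 °C, natural light, 57–72% RH) were sprayed once on foliage at 450 kg/ha and 0.3 MPa, at the 5–6-leaf (grass) or 6–7-leaf (broadleaf) stage. Compounds were in acetone diluted with 0.1% Tween-80 water. Surviving shoots were weighed at 24 days; dead plants counted as zero.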

The test system of a further test is Abutilon theophrasti. Described as above. The procedure, abridged:
as §1

The next test has as its system Sinapis arvensis. The test is described as above. In outline:
as §1

The next test has as its system Capsella bursa-pastoris. The description is as above. The procedure, abridged: as §1
The next test has as its system Sonchus arvensis. The description is as above. In outline:
as §1

In a further test the test system is Cirsium setosum. Described as above. Particulars: Table 111. In outline:
as §1

The subject of the next test is Stellaria media. Described as above. Particulars: Table 105. The procedure, abridged:
(§2)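 Pot-grown weeds were thinned to 15 per pot (45 per treatment) and sprayed on foliage at the 5–6-leaf stage for grasses or the 6–7-leaf stage for broadleaves. Agents were dissolved in acetone with 0.1% Tween-80 and applied at 450 kg/ha spray volume and 0.3 MPa. Plants were then kept in a greenhouse. Above-ground fresh weight of survivors, with dead plants counted as zero, gave inhibition versus a solvent/emulsifier blank.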

The test system of the next test is Malachium aquaticum. Described as above. The procedure, abridged:
as §2

The test system of another test is Galium aparine L. The test is described as above. Particulars: 24 days. In outline:
as §2

A further test deals with Echinochloa oryzoides. Put plainly: Soil sealing treatment, pot culture, fresh weight inhibition (Tables 149, 150). How it is done: (§3) A method for investigating absolute number was employed, wherein whole seedlings of survival weeds were cut off with a blade along the soil surface, and the fresh weight of the weeds was weighed with an analytical balance. For dead weeds, the fresh weight thereof was zero.
(§4) Theoretical fresh weight inhibition rate of a combination of two active ingredients in each group was calculated by the Gowing method (E0=X+Y−X*Y/100), and then compared with an actually measured inhibition rate (E), thereby effect of the combination (hereafter referred to as combined effect) on weeds was evaluated: the value of E-E0, which was greater than 10%, corresponded to a synergistic effect, the value of E-E0, which was less than −10%, corresponded to an antagonistic effect, and the value of E-E0, which was from −10% to 10%, corresponded to an additional effect. […] Wherein, in the formula, X represented the fresh weight inhibition rate of the active ingredient A in a dosage of P, and Y represented the fresh weight inhibition rate of the active ingredient B in a dosage of Q.
(§5) Echinochloa crusgalli var zelayensis were collected in Huai'an of Jiangsu Province; Echinochloa caudate were collected in Pingluo of Ningxia Province; Echinochloa oryzoides were collected in Qiqiha'er of Heilongjiang Province.
(§6) The culture was carried out in a controllable sunlight greenhouse at 20 to 30° C., in natural light, and relative humidity of 57% to 72%. […] The test soil was placed quantitatively to ¾ of the pots and then watered from the bottom of the pots to completely wet the soil to saturation. The pretreated test weed seeds were uniformly sowed on the surface, then covered with 0.5-2 cm soil according to the seed size, and ready-for use 24 hours after sowing.
(§7) The technical materials were all dissolved in acetone, and diluted with an aqueous solution containing 0.1% emulsifier T-80. The dilution is performed as required.
(§8) A ratio of A to the active ingredient B and amounts thereof in each group depends on the characteristics and toxicity of the two agents, as well as the main application purpose of a corresponding formulation. Based on the pre-tests in this study, the dosage of A and the active ingredient B applied alone and in combination were shown in the tables. Water containing the solvent and emulsifier same with the above groups but free of the agents was used as a blank control.
(§9) 3 pots with 30 weed seeds per pot were treated in one treatment with 4 replications per treatment.
(§10) The pots which were sowed and mulched were evenly placed on a platform with an area of 0.5 m^2, and a solution of agents was sprayed on soil surface thereof by the 3WP-2000-type walking spray tower at a dosage of […] and at a spray pressure of 0.3 MPa. After all the solution was sprayed, the valve was closed. After 30 seconds, the door of the spray tower was opened, and the nutritional bowl was taken out. Then the valve was opened, and the spray tube was cleaned by spraying 50 ml of water.
(§11) This section was same as the section 4) in the post-emergence treatment by performing foliage spray, and was not repeated herein.

The subject of another test is Echinochloa caudate. The experiment in a line: Soil sealing treatment, pot culture, fresh weight inhibition (Tables 99, 100). Here is the method: as §3, §4, §5, §6, §7, §8, §9, §10, §11
Test [1] has as its system Echinochloa crusgalli var. zelayensis. Put plainly: Soil sealing treatment, pot culture, fresh weight inhibition (Tables 49, 50). How it is done: as §3, §4, §5, §6, §7, §8, §9, §10, §11
The test system of the next test is Eclipta prostrate. Put plainly: Post-emergence foliage spray, pot culture, fresh weight inhibition (Tables 1-48, 51-98, 101-148; 24 days). As to conditions: 24 days. The procedure, abridged:
as §1

The test system of another test is Ludwigia prostrate. The test is described as above. The procedure, abridged: as §1
The test system of another test is Ammannia arenaria. Described as above. Particulars: Table 103. In outline: as §1
A further test relates to Setaria faberi. The test is described as above. The procedure, abridged:
as §1

In the next test the test system is Setaria glauca. The test is described as above. As to conditions: Table 84. The procedure, abridged:
as §1

Turning to `CC(C)N1C(=O)c2ccccc2NS1(=O)=O` [bentazone], the “Control effect (%) of B applied alone in corresponding dose” value (from here on “Control effect (%) of B applied alone”) in the test on Xanthium strumarium (B 18.75 g a.i./ha) was determined as 10.9%; in the test with Xanthium strumarium (B 37.5 g a.i./ha) it was 16.1%; with Xanthium strumarium (B 75 g a.i./ha), 46.6%; in the test on Xanthium strumarium (B 150 g a.i./ha) it was 76.5%; in the test with Abutilon theophrasti (bentazone 18.75 g a.i./ha), 5.9%; with Abutilon theophrasti (bentazone 37.5 g a.i./ha), 11.8%. Besides, the “Control effect (%) of B applied alone” value with Abutilon theophrasti (bentazone 75 g a.i./ha) worked out at 49.0%; in the test on Abutilon theophrasti (bentazone 150 g a.i./ha) it was 69.1%.
As for `Cc1nn(C)cc1C(=O)Oc1c(C(=O)c2ccc(C(F)(F)F)cc2S(C)(=O)=O)c(C)nn1C` [bipyrazone], the “Control effect (%) of B applied alone” value was 9.9% with Sinapis arvensis (B 1.875 g a.i./ha); 23.8% in the test with Sinapis arvensis (B 3.75 g a.i./ha); 50.8% in the test with Sinapis arvensis (B 7.5 g a.i./ha); 83.7% in the test on Sinapis arvensis (B 15 g a.i./ha); 2.9% with Capsella bursa-pastoris (bipyrazone 18.75 g a.i./ha); 12.9% in the test on Capsella bursa-pastoris (bipyrazone 37.5 g a.i./ha). The “Control effect (%) of B applied alone” value in the test with Capsella bursa-pastoris (bipyrazone 75 g a.i./ha) amounted to 51.1%; in the test on Capsella bursa-pastoris (bipyrazone 150 g a.i./ha), 80.3%.
For `CCOc1nc(F)cc2nc(S(=O)(=O)Nc3c(Cl)cccc3C(=O)OC)nn12` [cloransulam-methyl], the “Control effect (%) of B applied alone” value in the test with Sonchus arvensis (cloransulam-methyl 1.875 g a.i./ha) is given as 6.5%; in the test on Sonchus arvensis (cloransulam-methyl 3.75 g a.i./ha), 15.0%; with Sonchus arvensis (cloransulam-methyl 7.5 g a.i./ha) it was 52.8%; in the test with Sonchus arvensis (cloransulam-methyl 15 g a.i./ha), 72.9%; with Cirsium setosum (1.875 g a.i./ha) it was 13.6%; in the test with Cirsium setosum (3.75 g a.i./ha) it was 23.1%. Besides, the “Control effect (%) of B applied alone” value is 53.8% in the test on Cirsium setosum (7.5 g a.i./ha) and 71.9% in the test with Cirsium setosum (15 g a.i./ha).
For `COc1ncc(F)c2nc(S(=O)(=O)Nc3c(F)cccc3F)nn12` [florasulam], the “Control effect (%) of B applied alone” value was found to be 6.8% in the test with Stellaria media (0.375 g a.i./ha); 22.3% in the test on Stellaria media (0.75 g a.i./ha); 56.9% in the test with Stellaria media (1.5 g a.i./ha); 76.6% in the test on Stellaria media (3.0 g a.i./ha); 3.6% in the test on Malachium aquaticum (florasulam 0.375 g a.i./ha); 17.4% in the test on Malachium aquaticum (florasulam 0.75 g a.i./ha). The “Control effect (%) of B applied alone” value was found to be 56.4% in the test with Malachium aquaticum (florasulam 1.5 g a.i./ha); 77.6% with Malachium aquaticum (florasulam 3.0 g a.i./ha); 4.8% with Galium aparine L. (B 0.375 g a.i/ha); 20.6% in the test on Galium aparine L. (B 0.75 g a.i/ha); 56.3% with Galium aparine L. (B 1.5 g a.i/ha); 76.2% in the test on Galium aparine L. (B 3.0 g a.i/ha).
On to `CC(C)Oc1cc(-n2nc(C(C)(C)C)oc2=O)c(Cl)cc1Cl` [oxadiazon], for which the “Control effect (%) of B applied alone” value was determined as 5.1% in the test with Echinochloa oryzoides (B 37.5 g a.i./ha); 10.3% in the test with Echinochloa oryzoides (B 75 g a.i./ha); 39.7% in the test on Echinochloa oryzoides (B 150 g a.i./ha); 50.8% in the test on Echinochloa oryzoides (B 300 g a.i./ha); 6.0% with Echinochloa caudate (Table 99, 37.5 g a.i./ha); 22.1% in the test on Echinochloa caudate (Table 99, 75 g a.i./ha). In addition, the “Control effect (%) of B applied alone” value in the test with Echinochloa caudate (Table 99, 150 g a.i./ha) was found to be 39.5%; in the test on Echinochloa caudate (Table 99, 300 g a.i./ha), 63.0%; in test [1] (oxadiazon 37.5 g a.i./ha) it was 4.2%; in [1] (oxadiazon 75 g a.i./ha), 25.4%; in [1] (oxadiazon 150 g a.i./ha), 41.5%; in test [1] (oxadiazon 300 g a.i./ha), 64.2%.
With `CCOC(=O)c1cnn(C)c1S(=O)(=O)NC(=O)Nc1nc(OC)cc(OC)n1` [pyrazosulfuron-ethyl], the “Control effect (%) of B applied alone” value with Eclipta prostrate (B 1.875 g a.i/ha) was found to be 9.5%; with Eclipta prostrate (B 3.75 g a.i/ha) it was 19.9%; in the test on Eclipta prostrate (B 7.5 g a.i/ha), 51.0%; in the test with Eclipta prostrate (B 15 g a.i/ha), 76.1%; with Ludwigia prostrate (pyrazosulfuron-ethyl 1.875 g a.i./ha) it was 7.6%; in the test on Ludwigia prostrate (pyrazosulfuron-ethyl 3.75 g a.i./ha), 13.0%. The “Control effect (%) of B applied alone” value in the test with Ludwigia prostrate (pyrazosulfuron-ethyl 7.5 g a.i./ha) amounted to 52.2%; with Ludwigia prostrate (pyrazosulfuron-ethyl 15 g a.i./ha), 75.3%; with Ammannia arenaria (1.875 g a.i./ha), 16.3%; in the test on Ammannia arenaria (3.75 g a.i./ha), 26.1%; with Ammannia arenaria (7.5 g a.i./ha) it was 52.8%; in the test on Ammannia arenaria (15 g a.i./ha), 77.2%.
In the case of `Cc1c(C(=O)c2cnn(C)c2O)ccc(S(C)(=O)=O)c1C1=NOCC1` [topramezone], the “Control effect (%) of B applied alone” value turned out to be 3.2% in the test on Setaria faberi (B 1.875 g a.i./ha); 11.7% in the test on Setaria faberi (B 3.75 g a.i./ha); 36.5% with Setaria faberi (B 7.5 g a.i./ha); 75.4% in the test with Setaria faberi (B 15 g a.i./ha); 7.3% in the test on Setaria glauca (1.875 g a.i./ha); 10.6% with Setaria glauca (3.75 g a.i./ha). Further, the entries for the “Control effect (%) of B applied alone” value in the test on Setaria glauca (7.5 g a.i./ha) and with Setaria glauca (15 g a.i./ha) were 35.8% and 72.3%, respectively.
